According to PubChem BioAssay AID330 (DTP/NCI, 2004):
Inconclusive results and toxic doses are left out. The calls were made as follows: active = survival T/C of 150% or more; inactive = T/C below 125% in these data.

Tested on: P388 leukemia ip, CD2F1 mice, survival T/C
Assay: NCI In Vivo Anticancer Drug Screen. Data for tumor model P388 Leukemia (intraperitoneal) in CD2F1 (CDF1) mice
Conditions: endpoint: median survival time, higher = longer survival
Method in brief: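 Mice carrying the transplanted tumor received test compound or vehicle. Survival was recorded in each group, and the value is the treated-group measurement divided by that of the vehicle-treated control group.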

[1] = dose: 25.0 mg/kg/injection, schedule: Q01DX005 (ip), vehicle: saline with Tween-80
[2] = dose: 50.0 mg/kg/injection, schedule: Q01DX005 (ip), vehicle: saline with Tween-80
[3] = dose: 100.0 mg/kg/injection, schedule: Q01DX005 (ip), vehicle: saline with Tween-80
[4] = dose: 200.0 mg/kg/injection, schedule: Q01DX005 (ip), vehicle: saline with Tween-80
[5] = dose: 100.0 mg/kg/injection, schedule: Q01DX009 (ip), vehicle: saline with Tween-80
[6] = dose: 400.0 mg/kg/injection, schedule: Q01DX009 (ip), vehicle: saline with Tween-80
[7] = dose: 60.0 mg/kg/injection, schedule: Q01DX005 (ip), vehicle: saline with Tween-80
[8] = dose: 120.0 mg/kg/injection, schedule: Q01DX005 (ip), vehicle: saline with Tween-80
[9] = dose: 200.0 mg/kg/injection, schedule: Q01DX009 (ip), vehicle: saline with Tween-80
[10] = dose: 100.0 mg/kg/injection, schedule: Q01DX001 (ip), vehicle: Klucel (hydroxypropylcellulose) (HPC)
[11] = dose: 200.0 mg/kg/injection, schedule: Q01DX001 (ip), vehicle: Klucel (hydroxypropylcellulose) (HPC)
[12] = dose: 400.0 mg/kg/injection, schedule: Q01DX001 (ip), vehicle: Klucel (hydroxypropylcellulose) (HPC)

Measured: T/C

c1cc2nc(-c3ccc4cc(C5=NCCN5)[nH]c4c3)[nH]c2cc1C1=NCCN1
inactive: dose: 12.5 mg/kg/injection, schedule: Q01DX005 (ip), vehicle: saline 106 % of control | dose: 25.0 mg/kg/injection, schedule: Q01DX005 (ip), vehicle: saline 106 % of control | dose: 50.0 mg/kg/injection, schedule: Q01DX005 (ip), vehicle: saline 99 % of control

Cn1c(-c2ccc(Br)cc2)cc2[nH]c(=S)nc(N)c2c1=O
inactive: [1] 105 % of control | [2] 100 % of control | [3] 102 % of control | [4] 96 % of control

CCOC(=O)CCC(C)(C#N)C(C#N)C(=O)OCC (configuration not stated)
inactive: [5] 100 % of control | dose: 100.0 mg/kg/injection, schedule: Q04DX003 (ip), vehicle: saline with Tween-80 100 % of control | dose: 200.0 mg/kg/injection, schedule: Q04DX003 (ip), vehicle: saline with Tween-80 100 % of control | [6] 100 % of control | dose: 400.0 mg/kg/injection, schedule: Q04DX003 (ip), vehicle: saline with Tween-80 100 % of control

[N-]=[N+]=CC(=O)C1OC12C1CC3CC(C1)CC2C3 (configuration not stated)
inactive: [1] 86 % of control | [2] 105 % of control | [3] 113 % of control | [4] 113 % of control

CCOC1(C)OC2OC(COC(c3ccccc3)(c3ccccc3)c3ccccc3)C(O)C(O)C2O1 (configuration not stated)
inactive: dose: 12.5 mg/kg/injection, schedule: Q01DX009 (ip), vehicle: other 97 % of control | dose: 25.0 mg/kg/injection, schedule: Q01DX009 (ip), vehicle: other 97 % of control | dose: 50.0 mg/kg/injection, schedule: Q01DX009 (ip), vehicle: other 95 % of control | dose: 100.0 mg/kg/injection, schedule: Q01DX009 (ip), vehicle: other 98 % of control | dose: 200.0 mg/kg/injection, schedule: Q01DX009 (ip), vehicle: other 98 % of control

C=CCSC(=S)Nc1nc2ccc([N+](=O)[O-])cc2s1
inactive: dose: 6.25 mg/kg/injection, schedule: Q01DX009 (ip), vehicle: Klucel (hydroxypropylcellulose) (HPC) 106 % of control | dose: 12.5 mg/kg/injection, schedule: Q01DX009 (ip), vehicle: Klucel (hydroxypropylcellulose) (HPC) 109 % of control | dose: 25.0 mg/kg/injection, schedule: Q01DX009 (ip), vehicle: Klucel (hydroxypropylcellulose) (HPC) 103 % of control

NC(=O)C(N)C(F)c1ccccc1 (configuration not stated)
inactive: [7] 102 % of control | [8] 95 % of control

CC(C)c1ccc(/C=C(/NC(=O)c2ccccc2)c2nc3ccccc3s2)cc1
inactive: [7] 104 % of control | [8] 111 % of control | dose: 240.0 mg/kg/injection, schedule: Q01DX005 (ip), vehicle: saline with Tween-80 118 % of control

O=C(O)CCC(=O)Nc1ccccc1C(=O)O
inactive: [5] 110 % of control | [9] 100 % of control | [6] 110 % of control

C=CC(C)(C)C12Oc3c(ccc(OC)c3OC)C1=COc1cc(O)ccc12 (configuration not stated)
inactive: [10] 101 % of control | [11] 105 % of control | [12] 97 % of control

CCC(C)C(NC(=O)C(Cl)Cl)C(=O)O (configuration not stated)
inactive: dose: 50.0 mg/kg/injection, schedule: Q01DX005 (ip), vehicle: Klucel (hydroxypropylcellulose) (HPC) 96 % of control | dose: 100.0 mg/kg/injection, schedule: Q01DX005 (ip), vehicle: Klucel (hydroxypropylcellulose) (HPC) 96 % of control | dose: 200.0 mg/kg/injection, schedule: Q01DX005 (ip), vehicle: Klucel (hydroxypropylcellulose) (HPC) 99 % of control

O=C1C(O)C(c2ccccc2)c2ccccc2N1c1ccccc1 (configuration not stated)
inactive: [10] 95 % of control | [11] 96 % of control | [12] 89 % of control

O=P(Oc1ccccc1)(Oc1ccccc1)C(Nc1ccc(C(F)(F)F)cc1)c1ccccc1 (configuration not stated)
inactive: dose: 50.0 mg/kg/injection, schedule: Q01DX009 (ip), vehicle: Klucel (hydroxypropylcellulose) (HPC) 99 % of control | dose: 100.0 mg/kg/injection, schedule: Q01DX009 (ip), vehicle: Klucel (hydroxypropylcellulose) (HPC) 93 % of control | dose: 200.0 mg/kg/injection, schedule: Q01DX009 (ip), vehicle: Klucel (hydroxypropylcellulose) (HPC) 86 % of control

CC(=O)Nc1ccc(-c2cn3ccccc3n2)cc1
inactive: dose: 50.0 mg/kg/injection, schedule: Q01DX009 (ip), vehicle: saline with Tween-80 100 % of control | [5] 92 % of control | [9] 106 % of control
